Experimental data as given in ChEMBL document CHEMBL4130475, “Lorneic Acid Analogues from an Endophytic Actinomycete” (J Nat Prod, 2017).
Values belong to the molecule of their own block, whether it stands above or below them.

Key:
[1] = biological target: T1, Tyrosinase (Agaricus bisporus) (UniProt O42713); assay: Inhibition of mushroom tyrosinase at 0.18 mM using L-DOPA as substrate after 5 mins by spectrophotometric analysis relative to control
T1 sequence (whole entry): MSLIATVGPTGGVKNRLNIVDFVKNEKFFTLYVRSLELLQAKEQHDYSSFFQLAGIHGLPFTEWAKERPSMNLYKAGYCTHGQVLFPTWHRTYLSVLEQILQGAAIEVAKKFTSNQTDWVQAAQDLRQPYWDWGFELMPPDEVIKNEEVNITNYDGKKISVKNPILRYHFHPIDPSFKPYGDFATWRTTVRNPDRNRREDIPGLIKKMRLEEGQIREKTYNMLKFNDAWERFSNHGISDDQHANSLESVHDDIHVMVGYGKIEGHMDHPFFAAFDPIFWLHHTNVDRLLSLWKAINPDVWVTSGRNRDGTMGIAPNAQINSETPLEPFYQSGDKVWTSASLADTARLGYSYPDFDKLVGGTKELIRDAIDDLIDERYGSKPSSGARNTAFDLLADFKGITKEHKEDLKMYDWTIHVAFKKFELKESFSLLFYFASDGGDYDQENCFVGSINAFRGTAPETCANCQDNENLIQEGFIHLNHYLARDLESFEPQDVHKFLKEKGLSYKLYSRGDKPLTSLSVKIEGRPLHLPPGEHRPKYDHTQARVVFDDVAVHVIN

[2] = biological target: T1, Tyrosinase (Agaricus bisporus); assay: Inhibition of mushroom tyrosinase at 0.19 mM using L-DOPA as substrate after 5 mins by spectrophotometric analysis relative to control
[3] = biological target: T1, Tyrosinase (Agaricus bisporus); assay: Inhibition of mushroom tyrosinase at 0.11 mM using L-DOPA as substrate after 5 mins by spectrophotometric analysis relative to control

inhibition [1]: 27%
Compound: CCCC(O)c1cc(C)ccc1/C=C/CCCC(=O)O (stereo not drawn)

inhibition [2]: 12.9%
Compound: CC/C=C/c1cc(C)ccc1/C=C/CCCC(=O)O

inhibition [3]: 18.9%
Compound: CCCC(SSCC(NC(C)=O)C(=O)O)c1cc(C)ccc1/C=C/CCCC(=O)O (stereo not drawn)
